Tests used:
[1] = test system: glutathione; assay: Tissue glutathione after oral administration of sulfoximines (Table 4); type: in vivo, mouse; settings: 2 mmol/Kg oral
Description: (§1) Male mice (Swiss Webster) were fasted overnight (about 16 hr.) L-buthionine-SR-sulfoximine (BSO, S-n-butyl homocysteine-SR-sulfoximine), L-S-cyclohexylmethyl homocysteine-SR-sulfoximine (CHMSO); L-S-2-ethylbutylhomocysteine-SR-sulfoximine (2 EtBSO, L-S-2-ethylbutyl homocysteine-SR-sulfoximine, or saline (0.9% NaCl) were administered to mice at 2 mmol/Kg by intubation (100 mM; pH about 1 with HCl (200 mM). At the times indicated, plasma and tissues were obtained and assayed for glutathione (GSH+1/2 GSSG) as described by Anderson, Methods in Enzymology, 1985, 113:548-555. (See Table 4 and 5.)

[2] = test system: human ovarian tumor cells; settings: grown in nude mice; cited from earlier work
[3] = test system: glutathione; assay: Tissue glutathione after oral administration of sulfoximines (Table 5); type: in vivo, mouse; settings: for % Decrease in glutathione / Glutathione level: 2 mmol/Kg oral
Description: as §1

[4] = test system: Trypanosoma brucei; settings: six mice treated, cited from earlier work
[5] = mice depleted of glutathione by buthionine sulfoximine; cited from earlier work
[6] = test system: mouse L1210 leukemia cells; settings: resistant cells treated with BSO; cited from earlier work
[7] = test system: human lymphoid cell lines; settings: cited from earlier work
[8] = target: T1, γ-Glutamylcysteine Synthetase (Rattus norvegicus, UniProt P19468); assay: Inhibition of γ-glutamylcysteine synthetase (preincubation assay); type: biochemical; settings: 30 min preincubation, 22° C.; read-out: Kiapp; Concentration for 50% Inhibition
T1 construct: Rat kidney γ-Glutamylcysteine synthetase was purified from Sprague Dawley (Taconic Farms) rats; from tissue; host or cells: rat kidney (Sprague Dawley, Taconic Farms)
T1 sequence (P19468 1-637): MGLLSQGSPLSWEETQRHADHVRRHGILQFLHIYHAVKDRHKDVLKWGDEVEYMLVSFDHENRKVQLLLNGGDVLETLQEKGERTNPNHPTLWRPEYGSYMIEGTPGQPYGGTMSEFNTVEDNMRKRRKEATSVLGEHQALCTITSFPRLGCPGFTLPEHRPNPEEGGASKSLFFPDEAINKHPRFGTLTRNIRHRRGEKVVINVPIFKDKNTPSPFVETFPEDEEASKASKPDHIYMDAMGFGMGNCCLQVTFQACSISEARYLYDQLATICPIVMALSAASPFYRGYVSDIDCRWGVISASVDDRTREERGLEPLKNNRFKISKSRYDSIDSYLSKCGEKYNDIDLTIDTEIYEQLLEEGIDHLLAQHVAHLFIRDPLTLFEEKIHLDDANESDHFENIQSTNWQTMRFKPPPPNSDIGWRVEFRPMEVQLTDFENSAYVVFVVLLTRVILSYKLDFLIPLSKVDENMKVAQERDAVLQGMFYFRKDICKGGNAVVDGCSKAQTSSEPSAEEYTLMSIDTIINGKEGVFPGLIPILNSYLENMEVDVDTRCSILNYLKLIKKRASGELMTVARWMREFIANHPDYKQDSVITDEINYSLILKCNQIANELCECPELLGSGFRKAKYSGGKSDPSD
T1 sequence (P48508 1-274 partner): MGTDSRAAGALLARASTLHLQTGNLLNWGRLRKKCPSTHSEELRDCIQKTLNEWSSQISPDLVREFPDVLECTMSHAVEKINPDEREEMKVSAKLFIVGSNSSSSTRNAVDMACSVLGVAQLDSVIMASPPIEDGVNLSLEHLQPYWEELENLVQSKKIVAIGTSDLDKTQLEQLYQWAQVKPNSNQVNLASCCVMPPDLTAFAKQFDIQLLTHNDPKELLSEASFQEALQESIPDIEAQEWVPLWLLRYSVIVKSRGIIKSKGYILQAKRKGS
Description: Rat kidney γ-Glutamylcysteine synthetase was purified from Sprague Dawley (Taconic Farms) rats (Seelig., Methods in Enzymology, 1985, 113:379-390).
The preincubation assay of γ-glutamylcysteine synthetase is given below. γ-Glutamylcysteine synthetase (4.6 units) was added to a mixture (final volume, 50 μl) containing 100 mM Tris/HCl (pH 8.2), 5 mM ATP, 20 mM MgCl2, 0.2 mM EDTA, and the sulfoximine being evaluated. After incubation at 22° C. for 30 minutes, a 45 μl aliquot of the preincubation mixture was added to the assay as follows.
γ-Glutamylcysteine synthetase was assayed as follows (Griffith et al, J. Biological Chem., 1979, 254:1205-1210). The reaction mixture (final volume, 1.0 ml) contained 100 mM Tris/HCl (pH 8.2), 120 mM KCl, 5 mM phosphoenolpyruvate, 20 mM MgCl2, 10 mM sodium L-glutamate, 10 mM L-α-aminobutyric acid, 0.2 mM EDTA, 0.4 mM NADH, pyruvate kinase (10 IU), and lactate dehydrogenase (10 IU). The reaction (37° C.) was initiated by the addition of γ-glutamylcysteine synthetase and the oxidation of NADH, equivalent to ADP formation, was recorded at 340 nm.

[9] = test system: human lymphoid cell lines; settings: cited from earlier work; remark: listed apart in the source
[10] = test system: human ovarian cancer cells; settings: cited from earlier work
[11] = test system: V79 cells; settings: cited from earlier work
[12] = test system: B16 melanomas; settings: cited from earlier work

SMILES: CCCCS(=N)(=O)CCC(N)C(=O)O [BSO, L-S-butyl homocysteine-SR-sulfoximine]
- % Decrease in glutathione ([1]; brain, 2 hr): 24%
- Glutathione level ([1]; brain, 2 hr): 1.86 µmol/g
- % Decrease in glutathione ([1]; brain, 12 hr): 18%
- Glutathione level ([1]; brain, 12 hr): 1.73 µmol/g
- % Decrease in glutathione ([1]; kidney, 2 hr): 80%
- Glutathione level ([1]; kidney, 2 hr): 0.69 µmol/g
- % Decrease in glutathione ([1]; kidney, 12 hr): 87%
- Glutathione level ([1]; kidney, 12 hr): 0.45 µmol/g
- % Decrease in glutathione ([1]; liver, 2 hr): 75%
- Glutathione level ([1]; liver, 2 hr): 1.23 µmol/g
- % Decrease in glutathione ([1]; liver, 12 hr): 78%
- Glutathione level ([1]; liver, 12 hr): 1.10 µmol/g
- % Decrease in glutathione ([1]; plasma, 2 hr): 59%
- Glutathione level ([1]; plasma, 2 hr): 9.7 µM
- % Decrease in glutathione ([1]; plasma, 12 hr): 69%
- Glutathione level ([1]; plasma, 12 hr): 7.2 µM
- reversal of resistance [2]: reversal of resistance
- decrease in brain glutathione levels ([3]; 2 mmol/kg, 12 hours, experimental error about 5%): ~20%
- decrease in glutathione levels (cardio-toxicity) ([3]; 2 hours, 2 mmol/kg, mice): 22%
- % Decrease in glutathione ([3]; brain, 2 hr): 0%
- Glutathione level ([3]; brain, 2 hr): 2.17 µmol/g
- % Decrease in glutathione ([3]; brain, 4 hr): 10%
- Glutathione level ([3]; brain, 4 hr): 1.95 µmol/g
- % Decrease in glutathione ([3]; brain, 8 hr): 12%
- Glutathione level ([3]; brain, 8 hr): 2.04 µmol/g
- % Decrease in glutathione ([3]; brain, 12 hr): 18%
- Glutathione level ([3]; brain, 12 hr): 1.64 µmol/g
- % Decrease in glutathione ([3]; heart, 2 hr): 22%
- Glutathione level ([3]; heart, 2 hr): 0.86 µmol/g
- % Decrease in glutathione ([3]; heart, 4 hr): 17%
- Glutathione level ([3]; heart, 4 hr): 0.91 µmol/g
- % Decrease in glutathione ([3]; heart, 8 hr): 36%
- Glutathione level ([3]; heart, 8 hr): 0.65 µmol/g
- % Decrease in glutathione ([3]; heart, 12 hr): 49%
- Glutathione level ([3]; heart, 12 hr): 0.58 µmol/g
- % Decrease in glutathione ([3]; kidney, 2 hr): 71%
- Glutathione level ([3]; kidney, 2 hr): 0.81 µmol/g
- % Decrease in glutathione ([3]; kidney, 4 hr): 80%
- Glutathione level ([3]; kidney, 4 hr): 0.57 µmol/g
- % Decrease in glutathione ([3]; kidney, 8 hr): 86%
- Glutathione level ([3]; kidney, 8 hr): 0.44 µmol/g
- % Decrease in glutathione ([3]; kidney, 12 hr): 91%
- Glutathione level ([3]; kidney, 12 hr): 0.30 µmol/g
- % Decrease in glutathione ([3]; liver, 2 hr): 71%
- Glutathione level ([3]; liver, 2 hr): 1.50 µmol/g
- % Decrease in glutathione ([3]; liver, 4 hr): 87%
- Glutathione level ([3]; liver, 4 hr): 0.70 µmol/g
- % Decrease in glutathione ([3]; liver, 8 hr): 89%
- Glutathione level ([3]; liver, 8 hr): 0.60 µmol/g
- % Decrease in glutathione ([3]; liver, 12 hr): 85%
- Glutathione level ([3]; liver, 12 hr): 0.73 µmol/g
- % Decrease in glutathione ([3]; plasma, 2 hr): 56%
- Glutathione level ([3]; plasma, 2 hr): 9.8 µM
- % Decrease in glutathione ([3]; plasma, 4 hr): 68%
- Glutathione level ([3]; plasma, 4 hr): 7.1 µM
- % Decrease in glutathione ([3]; plasma, 8 hr): 78%
- Glutathione level ([3]; plasma, 8 hr): 5.1 µM
- % Decrease in glutathione ([3]; plasma, 12 hr): 77%
- Glutathione level ([3]; plasma, 12 hr): 5.5 µM
- cure of infected mice [4]: two mice were apparently cured
- survival of infected mice ([4]; versus untreated infected controls): four mice survived significantly longer
- decrease in LD50 value of acetaminophen [5]: about 80%
- sensitivity of resistant cells to phenylalanine mustard [6]: resensitization of the tumor cells to phenylalanine mustard
- disappeared intracellular glutathione found in the medium ([7]; CEM line, L-serine plus borate in medium): About 50%
- cell viability on further decrease in glutathione level ([7]; below 0.09 mM glutathione): marked loss of viability
- cell viability ([7]; cells with 0.09 mM glutathione (4% of controls)): 85%
- cellular glutathione as percent of control levels ([7]; three human lymphoid cell lines, medium containing BSO, 50 hours): about 5%
- Ki [8]: 600 nM
- sensitivity to γ-radiation ([9]; cells with 4-5% of control glutathione): much more sensitive
- sensitivity to radiation ([9]; glutathione about 5% of the control levels): marked increase in sensitivity to radiation
- reversal of resistance ([10]; glutathione depletion with BSO): Reversal of resistance can be achieved
- sensitivity of resistant cells to the drugs and to radiation ([10]; glutathione depletion): significantly increases the sensitivity of the resistant cells
- oxygen enhancement ratio [11]: decrease of the oxygen enhancement ratio
- sensitization to radiation ([11]; hypoxic conditions): sensitization to radiation under hypoxic conditions
- longevity ([12]; BSO plus irradiation): significant increase in longevity
- tumor size ([12]; BSO plus irradiation): significant decrease in tumor size
- tumor glutathione content relative to untreated controls ([12]; when irradiated, tumors in footpads of mice): about 20%

Reference: patent US5476966A, “Method for depletion of glutathione” (Cornell Research Foundation, Inc., priority 1995, dated 1995)
